According to US4950647A, “T cell immunopotentiator” (Nucleic Acid Research Institute, priority 1988, dated 1990):
Entries after “also recorded” stand apart in the source; their conditions may differ.

Columns and labels:
[1] = system: B cells (human peripheral blood mononuclear cells); assay: Staphylococcus aureus cowan (SAC) induced B cell proliferation; format: cell-based; parameters: 3H-thymidine incorporation: unit not given here
Experimental: (§1) Peripheral blood mononuclear cells were isolated from heparinized peripheral blood of normal healthy donors as described in Sharma, B. and S. Gupta, "Antigen-specific primary cytotoxic T lymphocyte response in acquired immune deficiency syndrome (AIDS) and AIDS related complex", Clin. Exp. Immunol., 62:296, 1985. Briefly, blood was diluted 1:1 with Hanks balanced salt solution (HBSS). Peripheral blood mononuclear cells were separated on a Ficoll-Hypaque gradient. The peripheral blood mononuclear cells recovered from the interface were washed three times with HBSS and resuspended in RPMI-1640 containing 100 U/ml penicillin, 100 μg/ml streptomycin 2mM L-glutamine (GIBCO, Grand Island, N.Y.), and 10% heat-inactivated pooled A serum (Irvine Scientific, Irvine, Calif.), hereafter referred as complete medium (CM).
Peripheral blood mononuclear cells (1×10^5 /0.2 ml/well) were incubated with different concentrations of Staphylococcus aureus cowan (1:[…] and 1:10,000 dilutions) in the presence and absence of 6-amino-(2-deoxy-α-D-erythro-pentofuranosyl)-imidazo[4,5,-C]pyridin- 4-one for 4 days. The cultures were pulsed with [^3 H]-thymidine and then the incorporation of [^3 H]thymidine was measured.
To further evaluate the effect on B cell response, human peripheral blood mononuclear cells were cultured with Staphylococcus aureus cowan in the presence and absence of 6-amino-(2-deoxy-α-D-erythro-pentofuranosyl)-imidazo[4,5,-C]pyridin- 4-one.

[2] = system: B target cells (PHA induced lymphoblasts of donor B); assay: Generation of antigen-specific primary cytotoxic T lymphocytes, 51Cr release, target B; format: cell-based, human; conditions: for % Specific Cytotoxicity: Exp. 1, A + Bx, no compound 7
Experimental: (§2) Peripheral blood mononuclear cells from healthy donor A and C were cultured together with irradiated (3000 R) peripheral blood mononuclear cells from donor B and irradiated cells (SX) from B cells of the SB cell line, respectively, for five days. At the end of the incubation period, the cells were washed and resuspended in medium and then their cytotoxic activity was determined against the specific lymphoblast target cell B or S according to the procedure of Sharma and Gupta noted above.

[3] = system: human lymphocytes (peripheral blood mononuclear cells); assay: Mitogenic activity (3H-thymidine incorporation); format: cell-based
Experimental: as §1
The ability of 6-amino-(2-deoxy-α-D-erythro-pentofuranosyl)-imidazo[4,5,-C]pyridin- 4-one to activate lymphocytes was determined by culturing the cells with and without this compound. Peripheral blood mononuclear cells (1×10^5 /0.2 ml) were cultures in 96 well microtiter plates (Corning, N.Y.) for 72-96 hrs at 37° C. in 5% CO2 humid atmosphere and then for an additional 16 hr in the presence of 1 μCi/well [^3 H] thymidine (ICN Pharmaceuticals, Inc., Irvine, Calif.). Cells were harvested on glass fiber filter paper using a cell harvester (Skatron, Lier, Norway). The radioactivity was measured in a scintillation counter after suspending the dried filter in scintillation fluid.
To determine whether 6-amino-(2-deoxy-α-D-erythro-pentofuranosyl)-imidazo[4,5,-C]pyridin- 4-one directly activates lymphocytes to proliferate, peripheral blood mononuclear cells were cultured with or without this compound as described in the above methods section.

[4] = system: human mixed lymphocyte culture; assay: Mixed lymphocyte response / culture (alloantigens); format: cell-based
Experimental: as §1
Peripheral blood mononuclear cells (1×10^5 /0.2 ml/well) from donor-A were cultured together with different numbers of peripheral blood mononuclear cells ([…]) of peripheral blood mononuclear cells from the other donor for 96 hr as previously described above for the lymphocyte response to plant mitogens. Cultures were pulsed with [^3 H]-thymidinefor additional 16 hrs.

[5] = system: S target cells (cultured lymphoblasts from SB cell line); assay: Generation of antigen-specific primary cytotoxic T lymphocytes, 51Cr release, target S; format: cell-based, human; conditions: for % Specific Cytotoxicity: Exp. 2, C + Sx, no compound 26
Experimental: as §2

SMILES: Nc1cc2c(ncn2[C@@H]2C[C@H](O)[C@@H](CO)O2)c(O)n1 [Test Compound, 6-amino-1-(2-deoxy-α-D-erythro-pentofuranosyl)imidazo[4,5-C]-pyridin-4-one]
- suppression of SAC induced B cell proliferation [1]: slight suppression of B cell proliferation in some cases
- 3H-thymidine incorporation ([1]; SAC 1:100, 0.0125 mM): 31582 ± 5535
- 3H-thymidine incorporation ([1]; SAC 1:100, 0.025 mM): 30876 ± 1757
- 3H-thymidine incorporation ([1]; SAC 1:100, 0.05 mM): 31036 ± 2225
- 3H-thymidine incorporation ([1]; SAC 1:100, 0.6 mM): 31549 ± 1496
- 3H-thymidine incorporation ([1]; SAC 1:1000, 0.0125 mM): 18079 ± 829
- 3H-thymidine incorporation ([1]; SAC 1:1000, 0.025 mM): 18897 ± 1334
- 3H-thymidine incorporation ([1]; SAC 1:1000, 0.05 mM): 17240 ± 1634
- 3H-thymidine incorporation ([1]; SAC 1:1000, 0.2 mM): 16618 ± 2378
- augmenting effect on SAC induced B cell proliferation ([1]; listed as 6-Amino-(2-deoxy-α-D-erythro-pentofuranosyl)-imidazo[4,5,-C]pyridin-4-one): neither an effect on Staphylococcus aureus cowan induced B cell proliferation; also recorded: no augmenting effect
- % Specific Cytotoxicity ([2]; compound (0.05)): 9%
- % Specific Cytotoxicity ([2]; compound (0.1)): 22%
- % Specific Cytotoxicity ([2]; compound (0.2)): 26%
- cytotoxic T lymphocyte activity ([2]; specific fresh phytohemagglutinin induced lymphoblasts): increased
- increase in the proliferation of peripheral blood mononuclear cells ([3]; 0.006 mM to 0.4 mM, several donors): no significant increase
- stimulation of lymphocytes to proliferate ([3]; 1 mM): failed to stimulate lymphocytes to proliferate
- direct stimulation of lymphocytes to proliferate ([3]; by itself): unable to directly stimulate lymphocytes to proliferate
- 3H-thymidine incorporation ([3]; donor 1, 0.006 mM): 212 ± 96 Counts per minute
- 3H-thymidine incorporation ([3]; donor 1, 0.025 mM): 494 ± 267 Counts per minute
- 3H-thymidine incorporation ([3]; donor 1, 0.050 mM): 306 ± 106 Counts per minute
- 3H-thymidine incorporation ([3]; donor 1, 0.2 mM): 246 ± 99 Counts per minute
- 3H-thymidine incorporation ([3]; donor 1, 0.4 mM): 320 ± 46 Counts per minute
- 3H-thymidine incorporation ([3]; donor 2, 0.006 mM): 262 ± 68 Counts per minute
- 3H-thymidine incorporation ([3]; donor 2, 0.025 mM): 273 ± 122 Counts per minute
- 3H-thymidine incorporation ([3]; donor 2, 0.050 mM): 257 ± 67 Counts per minute
- 3H-thymidine incorporation ([3]; donor 3, 0.006 mM): 266 ± 42 Counts per minute
- 3H-thymidine incorporation ([3]; donor 3, 0.025 mM): 252 ± 112 Counts per minute
- 3H-thymidine incorporation ([3]; donor 3, 0.050 mM): 180 ± 37 Counts per minute
- 3H-thymidine incorporation ([3]; donor 4, 0.006 mM): 246 ± 61 Counts per minute
- 3H-thymidine incorporation ([3]; donor 4, 0.025 mM): 237 ± 55 Counts per minute
- 3H-thymidine incorporation ([3]; donor 4, 0.050 mM): 240 ± 35 Counts per minute
- 3H-thymidine incorporation ([3]; donor 5, 0.006 mM): 238 ± 63 Counts per minute
- 3H-thymidine incorporation ([3]; donor 5, 0.025 mM): 121 ± 55 Counts per minute
- 3H-thymidine incorporation ([3]; donor 5, 0.050 mM): 841 ± 310 Counts per minute
- 3H-thymidine incorporation ([3]; donor 5, 0.2 mM): 277 ± 51 Counts per minute
- 3H-thymidine incorporation ([3]; donor 5, 0.4 mM): 165 ± 64 Counts per minute
- 3H-thymidine incorporation ([3]; donor 6, 0.006 mM): 486 ± 51 Counts per minute
- 3H-thymidine incorporation ([3]; donor 6, 0.025 mM): 508 ± 140 Counts per minute
- 3H-thymidine incorporation ([3]; donor 6, 0.050 mM): 650 ± 130 Counts per minute
- 3H-thymidine incorporation ([3]; donor 6, 0.2 mM): 620 ± 322 Counts per minute
- 3H-thymidine incorporation ([3]; donor 6, 0.4 mM): 395 ± 22 Counts per minute
- 3H-thymidine incorporation ([3]; donor 7, 0.006 mM): 1133 ± 257 Counts per minute
- 3H-thymidine incorporation ([3]; donor 7, 0.025 mM): 1667 ± 254 Counts per minute
- 3H-thymidine incorporation ([3]; donor 7, 0.050 mM): 772 ± 137 Counts per minute
- 3H-thymidine incorporation ([3]; donor 7, 0.2 mM): 657 ± 137 Counts per minute
- 3H-thymidine incorporation ([3]; donor 7, 0.4 mM): 702 ± 189 Counts per minute
- effect on mixed lymphocyte response ([4]; 2-way mixed lymphocyte culture): markedly increased the mixed lymphocyte response in a dose dependent manner in most of the cases
- maximal increase of mixed lymphocyte response ([4]; 2-way mixed lymphocyte culture): 91%
- 3H-thymidine incorporation in MLC ([4]; A + B (0.5 × 10^5), 0.0125 mM): 14814 ± 929 CPM
- 3H-thymidine incorporation in MLC ([4]; A + B (0.5 × 10^5), 0.025 mM): 18978 ± 1048 CPM
- 3H-thymidine incorporation in MLC ([4]; A + B (0.5 × 10^5), 0.05 mM): 21399 ± 1759 CPM
- 3H-thymidine incorporation in MLC ([4]; A + B (0.5 × 10^5), 0.2 mM): 22448 ± 1609 CPM
- 3H-thymidine incorporation in MLC ([4]; A + B (0.5 × 10^5), 0.4 mM): 21593 ± 3007 CPM
- 3H-thymidine incorporation in MLC ([4]; A + B (1 × 10^5), 0.0125 mM): 26858 ± 2392 CPM
- 3H-thymidine incorporation in MLC ([4]; A + B (1 × 10^5), 0.025 mM): 21794 ± 7136 CPM
- 3H-thymidine incorporation in MLC ([4]; A + B (1 × 10^5), 0.05 mM): 33532 ± 1732 CPM
- 3H-thymidine incorporation in MLC ([4]; A + B (1 × 10^5), 0.2 mM): 30790 ± 1912 CPM
- 3H-thymidine incorporation in MLC ([4]; A + B (1 × 10^5), 0.4 mM): 30261 ± 1835 CPM
- 3H-thymidine incorporation in MLC ([4]; A + B (2 × 10^5), 0.0125 mM): 18608 ± 2511 CPM
- 3H-thymidine incorporation in MLC ([4]; A + B (2 × 10^5), 0.025 mM): 23548 ± 4439 CPM
- 3H-thymidine incorporation in MLC ([4]; A + B (2 × 10^5), 0.05 mM): 25299 ± 4479 CPM
- 3H-thymidine incorporation in MLC ([4]; A + B (2 × 10^5), 0.2 mM): 29209 ± 2804 CPM
- 3H-thymidine incorporation in MLC ([4]; A + B (2 × 10^5), 0.4 mM): 27940 ± 3679 CPM
- 3H-thymidine incorporation in MLC ([4]; B + A (0.5 × 10^5), 0.0125 mM): 17045 ± 982 CPM
- 3H-thymidine incorporation in MLC ([4]; B + A (0.5 × 10^5), 0.025 mM): 19538 ± 3053 CPM
- 3H-thymidine incorporation in MLC ([4]; B + A (0.5 × 10^5), 0.05 mM): 20799 ± 1068 CPM
- 3H-thymidine incorporation in MLC ([4]; B + A (0.5 × 10^5), 0.2 mM): 19346 ± 20799 CPM
- 3H-thymidine incorporation in MLC ([4]; B + A (0.5 × 10^5), 0.4 mM): 13779 ± 3043 CPM
- 3H-thymidine incorporation in MLC ([4]; B + A (2 × 10^5), 0.0125 mM): 18538 ± 1601 CPM
- 3H-thymidine incorporation in MLC ([4]; B + A (2 × 10^5), 0.025 mM): 22129 ± 3893 CPM
- 3H-thymidine incorporation in MLC ([4]; B + A (2 × 10^5), 0.05 mM): 24362 ± 2936 CPM
- 3H-thymidine incorporation in MLC ([4]; B + A (2 × 10^5), 0.2 mM): 27737 ± 2105 CPM
- 3H-thymidine incorporation in MLC ([4]; B + A (2 × 10^5), 0.4 mM): 28986 ± 1448 CPM
- % Specific Cytotoxicity ([5]; compound (0.006)): 42%
- % Specific Cytotoxicity ([5]; compound (0.025)): 36%
- % Specific Cytotoxicity ([5]; compound (0.1)): 53%
- cytotoxic T lymphocyte activity ([5]; cultured lymphoblasts from the SB cell (leukemic) line): increased
